Assay results taken from patent publication US5800838A, “Composition that inhibits or destroys at least one unicellular living organism containing fluorine F- and Lithium li+” (priority 1987, dated 1998).
≈ marks a conversion by molar mass, not a printed value. Where two headings read alike, the source gives them in different places.

Legend:
[1] = tested on: Escherichia coli; test: Antibiotic activity of ampicillin (Example 24); format: cell-based
[2] = tested on: Staphylococcus aureus; test: Antibiotic activity of ampicillin (Example 24); format: cell-based; settings: read-out: minimal inhibitory concentration
[3] = tested on: Haemophilus influenzae; test: Antibiotic activity of ampicillin (Example 24); format: cell-based; settings: read-out: minimal inhibitory concentration
[4] = tested on: Group C streptococcus; test: Antibiotic activity of ampicillin (Example 24); format: cell-based; settings: read-out: minimal inhibitory concentration
[5] = tested on: Streptococcus faecalis; test: Antibiotic activity of ampicillin (Example 24); format: cell-based; settings: Enterococcus faecalis, read-out: minimal inhibitory concentration
[6] = tested on: Pseudomonas aeruginosa; test: Antibiotic activity of ampicillin (Example 24); format: cell-based; settings: read-out: minimal inhibitory concentration
[7] = tested on: Entrococcus faecium; test: Antibiotic activity of ampicillin (Example 24); format: cell-based; settings: resistant to ampicillin, read-out: minimal inhibitory concentration
[8] = tested on: Pseudomonas aeruginosa; test: MIC of doxycycline (Example 32); format: cell-based; settings: alone, or with FNa 8 ppm / Fli 8 ppm
Excerpt: The MIC of doxycycline was studied on pseudomonas aeruginosa (wild-type hospital strain) in the same conditions as for example 31.

[9] = tested on: Escherichia coli ATCC 25922; test: Antibiotic activity of patient's blood after administration, inhibition holes methodology; format: in vivo
Excerpt: The efficiency in vivo of the administration of doxycycline in presence of Fli has been measured and compared with the efficiency of the administration of doxycycline alone.
The antibiotic composition (doxycycline alone or with Fli) has been administered to a healthy patient, and the antibiotic activity of the patient's blood has been determined before the first administration, the day of the administration, and three days later. The delay of three days is necessary because of the low solubility of Fli: the pertinent concentration of Fli is only obtained after the end of the second day after its administration.
The patient had taken the antibiotic during the three days, 2 capsules of 250 mg each day at 8 a.m. A blood sample was taken 3 hours after each administration.
And the antibiotic activity was twice determined by a microbiological titration using the inhibition holes methodology on a standard strain ATCC 25922 of Escherichia coli.
Holes of […] diameter were made on a Mueller Hinton agar and 100 μl of plasma were injected in each hole. The agar was then seeded with an inoculum of Escherichia coli of […].
After an incubation of 24 hours at 37° C., the diameters around each holes (in which the strain was killed) were read.
In the first trial, the capsules of 250 mg were constituted of 110 mg of doxycycline chlorhydrate and of lactose.
The second trial was conducted similarly with gelules of 250 mg constituted of 110 mg of doxycycline, 53 mg of Fli and lactose.

[10] = tested on: Escherichia coli; test: Activity on wild-type hospital strains responsible for skin infections; format: cell-based; settings: Escherichia coli, read-out: 100% inhibitory concentration
[11] = tested on: staphylococcus aeurus; format: cell-based; settings: Fli 4 ppm
Protocol: Strains Gram+ and Gram- (wild-type hospital) having a resistant phenotype vis a vis standard firstly and secondly used antibiotherapy were experimented on activated antibiotics.
250 experiments were conducted on the following strains: Streptococcus group B, C, D, F, G, Staphylococcus aureus, Staphylococcus epidermitis, Klebsiella pneumoniae, Klebsiella spirochete, Klebsiella oxytoca, Proteus mirabilis, Serratia marcescens, Escherichia coli, Citrobacter freundii, Enterobacter cloacae, Enterobacter calcoaceticus, Salmonella spirochete, Salmonella typhimurium, Pseudomonas aeruginosa, Haemophilus influenzae, Haemophilus sphrophilus, Acinetobacter calcoaeticus. […]

[12] = tested on: Group C streptococcus; test: Activity on wild-type hospital strains responsible for skin infections; format: cell-based; settings: Streptococcus
[13] = tested on: spermatozoa; settings: alone; cited from earlier work
[14] = LiF 0.8 mg/l, multiresistant strains often producing beta-lactamase
[15] = alone, multiresistant strains often producing beta-lactamase

SMILES: CC1(C)S[C@@H]2[C@H](NC(=O)[C@H](N)c3ccccc3)C(=O)N2[C@H]1C(=O)O [AMPICILLIN, ampicillin]
- MIC ([1]; ATCC25, LiF 1 mg/l, ATCC 25 922, read-out: minimal inhibitory concentration): 2 µg/mL (≈ 5.72 µM)
- MIC ([1]; ATCC25, alone, ATCC 25 922, read-out: minimal inhibitory concentration): 4 µg/mL (≈ 11.4 µM)
- MIC ([1]; LiF 0.8 mg/l, multiresistant strains often producing beta-lactamase, read-out: minimal inhibitory concentration): 8 µg/mL (≈ 22.9 µM)
- MIC ([1]; LiF 5 mg/l, 10 wild-type strains, read-out: minimal inhibitory concentration): 1 to 4 µg/mL (≈ 2.86 to 11.4 µM)
- MIC ([1]; LiF 5 mg/l, resistant Escherichia coli, read-out: minimal inhibitory concentration): 8 µg/mL (≈ 22.9 µM)
- MIC ([1]; alone, 10 wild-type strains, read-out: minimal inhibitory concentration): 2 to 8 µg/mL (≈ 5.72 to 22.9 µM)
- MIC ([1]; alone, multiresistant strains often producing beta-lactamase, read-out: minimal inhibitory concentration): 64 µg/mL (≈ 183 µM)
- MIC ([1]; alone, resistant Escherichia coli, read-out: minimal inhibitory concentration): 64 µg/mL (≈ 183 µM)
- MIC [2, 14]: 32 µg/mL (≈ 91.6 µM)
- MIC ([2]; LiF 1 mg/l, resistant to ampicillin, 10 strains): 64 µg/mL (≈ 183 µM)
- MIC ([2]; LiF 6 mg/l, resistant to ampicillin, strains producing beta-lactamase): 64 µg/mL (≈ 183 µM)
- MIC [2, 15]: > 128 µg/mL
- MIC ([2]; alone, resistant to ampicillin, 10 strains): > 128 µg/mL
- MIC ([2]; alone, resistant to ampicillin, strains producing beta-lactamase): > 128 µg/mL
- MIC [3, 14]: 32 µg/mL (≈ 91.6 µM)
- MIC ([3]; LiF 5 mg/l, resistant to ampicillin, 5 wild-type strains): 32 µg/mL (≈ 91.6 µM)
- MIC [3, 15]: > 128 µg/mL
- MIC ([3]; alone, resistant to ampicillin, 5 wild-type strains): > 128 µg/mL
- MIC [4, 14]: 64 µg/mL (≈ 183 µM)
- MIC ([4]; LiF 1 mg/l): 8 µg/mL (≈ 22.9 µM)
- MIC [4, 15]: 256 µg/mL (≈ 733 µM)
- MIC ([4]; alone): 32 µg/mL (≈ 91.6 µM)
- MIC ([5]; ATCC25, LiF 5 mg/l, ATCC 25 212): 4 µg/mL (≈ 11.4 µM)
- MIC ([5]; ATCC25, alone, ATCC 25 212): 8 µg/mL (≈ 22.9 µM)
- MIC ([5]; LiF 5 mg/l, 10 wild-type strains): 2 µg/mL (≈ 5.72 µM)
- MIC ([5]; alone, 10 wild-type strains): 4 to 8 µg/mL (≈ 11.4 to 22.9 µM)
- MIC [6, 14]: 4 to 8 µg/mL (≈ 11.4 to 22.9 µM)
- MIC ([6]; LiF 5 mg/l): 4 to 8 µg/mL (≈ 11.4 to 22.9 µM)
- MIC [6, 15]: 16 to 32 µg/mL (≈ 45.8 to 91.6 µM)
- MIC ([6]; alone): 16 to 32 µg/mL (≈ 45.8 to 91.6 µM)
- MIC ([7]; LiF 5 mg/l): 64 µg/mL (≈ 183 µM)
- MIC ([7]; alone): > 128 µg/mL

SMILES: C[C@H]1c2cccc(O)c2C(=O)C2=C(O)[C@]3(O)C(=O)C(C(N)=O)=C(O)[C@@H](N(C)C)[C@@H]3[C@@H](O)[C@@H]21 [DOXYCYCLINE, doxycycline]
- MIC [8]: 1000 µg/mL
- inhibition diameter ([9]; J0, day before the first administration, healthy patient, plasma): 7 mm
- inhibition diameter ([9]; J1, day of the first administration, 2 capsules each day, blood 3 hours after administration): 8-9 mm
- inhibition diameter ([9]; J3, third day of administration, 2 capsules each day, blood 3 hours after administration): 11-12 mm

SMILES: CC[C@H]1OC(=O)[C@H](C)[C@@H](O[C@H]2C[C@@](C)(OC)[C@@H](O)[C@H](C)O2)[C@H](C)[C@@H](O[C@@H]2O[C@H](C)C[C@H](N(C)C)[C@H]2O)[C@](C)(O)C[C@@H](C)C(=O)[C@H](C)[C@@H](O)[C@]1(C)O [ERYTHROMYCIN, erythromycin]
- MIC ([10]; alone): > 64 µg/mL
- MIC ([10]; in the presence of LiF 8 ppm): 32 µg/mL
- phenotype in presence of Fli [11]: the resistant phenotype was not changed
- MIC ([12]; read-out: 100% inhibitory concentration, alone): > 0.25 µg/mL
- MIC ([12]; read-out: 100% inhibitory concentration, in the presence of LiF 4 ppm): 0.125 µg/mL

SMILES: F [F^- ions]
- MIC (minimal inhibitory concentration) [13]: 5 ppm
- MIC, equivalent in % [13]: 0.0005%
